Measurements: patent US8642640B2, “1-phenylpyrrole derivatives” (Exelixis, Inc., priority 2008, dated 2014)

Molecular target: T1, human mineralocorticoid receptor (hMR) (Homo sapiens, UniProt P08235)
T1 construct: expressed in transfected cells; host or cells: HEK293
T1 sequence (P08235 726-964 limits assumed): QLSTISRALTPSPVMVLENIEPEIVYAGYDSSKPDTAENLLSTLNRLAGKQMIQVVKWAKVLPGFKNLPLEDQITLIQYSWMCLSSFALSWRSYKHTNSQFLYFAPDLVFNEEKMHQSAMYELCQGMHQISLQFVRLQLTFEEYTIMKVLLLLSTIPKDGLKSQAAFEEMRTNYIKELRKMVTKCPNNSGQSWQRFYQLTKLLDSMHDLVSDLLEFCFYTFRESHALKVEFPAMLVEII
Assay: GAL4-hMR-LBD luciferase reporter assay in HEK293 cells with 1 nM aldosterone (Test Example 1);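 as to Imax: 0% is DMSO-only control and 100% is 1 nM aldosterone alone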
Assay type: cell-based
Conditions: for IC50: concentration showing Imax/2, HEK293, GAL4-hMR-LBD, 1 nM aldosterone, overnight, read-out: ICmax50; for Emax: HEK293, read-out: Imax
Method: A plasmid pM-hMR-LBD expressing GAL4-hMR receptor, which has a ligand binding domain (LBD, corresponding to approximately 308 amino acids at the carboxy terminus) of human mineralocorticoid receptor (hMR, NM_000901) bonded to a DNA binding domain of yeast transcription factor GAL4 (corresponding to 147 amino acids at the amino terminus), was prepared. Reporter assay was conducted by using a reporter plasmid (such as plasmid pFR-Luc of […] CLONING SYSTEMS) including a luciferase gene, having a sequence (UAS sequence) which binds to the DNA binding domain of GAL4.
The plasmid pM-hMR-LBD and the reporter plasmid as obtained above were gene transferred into renal cell line HEK293 of human fetus by lipofection. On the next day, cells were collected by trypsin treatment, and dispensed with DMEM culture medium containing 5% of FBS treated by activated charcoal, to a white 96-well plate (Costar) with the amount of 95 microliter per well.
The test compounds were used as dissolved in dimethyl sulfoxide at a predetermined concentration, and the test compounds suitably diluted with culture media were added to the cells on the white 96-well plate so that the final concentration becomes 0.1%. […] After the addition, cultivation was carried out overnight.
On the next day, the culture media was removed, and then luciferase substrate (Wako Pure Chemical Industries, Ltd.) was prepared in accordance with the attached document and were added to each well by 50 microliters. Stirring was conducted for approximately 30 minutes, and the amount of luminescence was measured for each well by using Analyst (Molecular Devices), to obtain luciferase activity. A graph which plots relative luciferase activity values, when the luciferase activity value of Control group 1 was taken as 0% and the luciferase activity value of Control group 2 was taken as 100%, for each of the amount of the test compound addition group was made.

Row | Compound | IC50 [nM] | Emax [%]
1 | Cc1c(C(=O)Nc2ccc(S(C)(=O)=O)cc2)cc(C[C@H](C)O)n1-c1ccc(Cl)cc1Cl (single isomer, unassigned) [Example 43 - isomer B] | > 1000 | 
2 | Cc1c(C(=O)Nc2ccc(S(C)(=O)=O)cc2)cc(C[C@H](C)O)n1-c1ccc(Cl)cc1-c1ccc(F)cc1 (single isomer, unassigned) [Example 50 - isomer A] | > 1000 | 
3 | Cc1c(C(=O)Nc2ccc(S(C)(=O)=O)cc2)cc(C[C@H](C)O)n1-c1ccc(Cl)cc1Oc1ccc(F)cc1 (single isomer, unassigned) [Example 45 - isomer B] | > 1000 | 
4 | Cc1cc(NC(=O)c2cc(C[C@H](C)O)n(-c3ccc(F)cc3OC(F)F)c2C)ccc1S(C)(=O)=O (single isomer, unassigned) [Example 22 - isomer A] | 6.1 | 99
5 | Cc1c(C(=O)Nc2ccc(S(C)(=O)=O)cc2)cc(C[C@H](C)O)n1-c1ccc(Cl)cc1C(F)(F)F [Example 6, 1-[4-Chloro-2-(trifluoromethyl)phenyl]-5-[(2S)-2-hydroxypropyl]-2-methyl-N-[4-(methylsulfonyl)phenyl]-1H-pyrrole-3-carboxamide] | 6.2 | 92
6 | Cc1c(C(=O)Nc2ccc(S(C)(=O)=O)cc2)cc(C[C@H](C)O)n1-c1ccc(F)cc1OC(F)F [Example 9, 1-[2-(Difluoromethoxy)-4-fluorophenyl]-5-[(2S)-2-hydroxypropyl]-2-methyl-N-[4-(methylsulfonyl)phenyl]-1H-pyrrole-3-carboxamide] | 41 | 114
7 | CCc1c(C(=O)Nc2ccc(S(C)(=O)=O)cc2)cc(C[C@H](C)O)n1-c1ccc(F)cc1Cl [Example 44, 1-(2-Chloro-4-fluorophenyl)-2-ethyl-5-[(2S)-2-hydroxypropyl]-N-[4-(methylsulfonyl)phenyl]-1H-pyrrole-3-carboxamide] | 24 | 111
8 | Cc1c(C(=O)Nc2ccc(S(C)(=O)=O)cc2)cc(C[C@H](C)O)n1-c1ccc(F)cc1OC(F)F (single isomer, unassigned) [Example 9 - isomer B] | > 1000 | 
9 | Cc1c(C(=O)Nc2ccc(S(C)(=O)=O)cc2)cc(CCF)n1-c1ccc(F)cc1OC(F)F [Example 54, 1-[2-(Difluoromethoxy)-4-fluorophenyl]-5-(2-fluoroethyl)-2-methyl-N-[4-(methylsulfonyl)phenyl]-1H-pyrrole-3-carboxamide] | 14 | 75
10 | Cc1c(C(=O)Nc2ccc(S(C)(=O)=O)cc2)cc(C[C@H](C)O)n1-c1ccc(Cl)cc1Cl [Example 43, 1-(2,4-Dichlorophenyl)-5-[(2S)-2-hydroxypropyl]-2-methyl-N-[4-(methylsulfonyl)phenyl]-1H-pyrrole-3-carboxamide] | 40 | 100
11 | Cc1c(C(=O)Nc2ccc(S(C)(=O)=O)cc2)cc(CCO)n1-c1ccc(Cl)cc1C(F)(F)F (single isomer, unassigned) [Example 1 - isomer B, 1-[4-Chloro-2-(trifluoromethyl)phenyl]-5-(2-hydroxyethyl)-2-methyl-N-[4-(methylsulfonyl)phenyl]-1H-pyrrole-3-carboxamide] | > 1000 | 
12 | Cc1cc(NC(=O)c2cc(C[C@H](C)O)n(-c3ccc(F)cc3OC(F)F)c2C)ccc1S(C)(=O)=O (single isomer, unassigned) [Example 22 - isomer B] | > 1000 | 
13 | Cc1c(C(=O)Nc2ccc(S(C)(=O)=O)cc2)cc(C[C@H](C)O)n1-c1ccc(Cl)cc1-c1ccc(F)cc1 (single isomer, unassigned) [Example 50 - isomer B] | 1.2 | 104
14 | Cc1c(C(=O)Nc2ccc(S(N)(=O)=O)c(Cl)c2)cc(C[C@H](C)O)n1-c1ccc(F)cc1C(F)(F)F (single isomer, unassigned) [Example 12 - isomer A] | 3.1 | 113
15 | Cc1c(C(=O)Nc2ccc(S(C)(=O)=O)cc2)cc(CCO)n1-c1ccc(Cl)cc1C(F)(F)F [Example 1, 1-[4-Chloro-2-(trifluoromethyl)phenyl]-5-(2-hydroxyethyl)-2-methyl-N-[4-(methylsulfonyl)phenyl]-1H-pyrrole-3-carboxamide] | 11 | 110
16 | Cc1c(C(=O)Nc2ccc(S(C)(=O)=O)cc2)cc(CCO)n1-c1ccc(F)cc1Cl [Example 3, 1-(2-Chloro-4-fluorophenyl)-5-(2-hydroxyethyl)-2-methyl-N-[4-(methylsulfonyl)phenyl]-1H-pyrrole-3-carboxamide] | 30 | 109
17 | Cc1c(C(=O)Nc2ccc(S(N)(=O)=O)c(Cl)c2)cc(C[C@H](C)O)n1-c1ccc(F)cc1Cl (single isomer, unassigned) [Example 49 - isomer B] | 4.5 | 104

Now from value to molecule:

Row | IC50 [nM] | Emax [%] | Compound
18 | > 1000 |  | Cc1c(C(=O)Nc2ccc(S(C)(=O)=O)cc2)cc(C[C@H](C)O)n1-c1ccc(F)cc1C(F)(F)F (single isomer, unassigned) [Example 5 - isomer B]
19 | > 1000 |  | Cc1c(C(=O)Nc2ccc(S(C)(=O)=O)cc2)cc(CCO)n1-c1ccc(F)cc1Cl (single isomer, unassigned) [Example 3 - isomer B, 1-(2-Chloro-4-fluorophenyl)-5-(2-hydroxyethyl)-2-methyl-N-[4-(methylsulfonyl)phenyl]-1H-pyrrole-3-carboxamide]
20 | > 1000 |  | Cc1c(C(=O)Nc2ccc(S(C)(=O)=O)cc2)cc(C[C@H](C)O)n1-c1ccc(Cl)cc1OC(F)F (single isomer, unassigned) [Example 11 - isomer B]
21 | 13 | 107 | Cc1c(C(=O)Nc2ccc(S(C)(=O)=O)cc2)cc(C[C@H](C)O)n1-c1ccc(Cl)cc1OC(F)F [Example 11, 1-[4-Chloro-2-(difluoromethoxy)phenyl]-5-[(2S)-2-hydroxypropyl]-2-methyl-N-[4-(methylsulfonyl)phenyl]-1H-pyrrole-3-carboxamide]
22 | > 1000 |  | CCc1c(C(=O)Nc2ccc(S(C)(=O)=O)cc2)cc(C[C@H](C)O)n1-c1ccc(F)cc1Cl (single isomer, unassigned) [Example 44 - isomer A]
23 | > 1000 |  | Cc1c(C(=O)Nc2ccc(S(C)(=O)=O)cc2)cc(C[C@H](C)O)n1-c1ccc(F)cc1OC(F)(F)F (single isomer, unassigned) [Example 16 - isomer B]
24 | 5.5 | 115 | Cc1c(C(=O)Nc2ccc(S(C)(=O)=O)cc2)cc(CC(=O)N(C)C)n1-c1ccc(Cl)cc1C(F)(F)F [Example 61, 1-[4-Chloro-2-(trifluoromethyl)phenyl]-5-[2-(dimethylamino)-2-oxoethyl]-2-methyl-N-[4-(methylsulfonyl)phenyl]-1H-pyrrole-3-carboxamide]
25 | 19 | 115 | Cc1cc(Cl)ccc1-n1c(CCF)cc(C(=O)Nc2ccc(S(C)(=O)=O)cc2)c1C [Example 51, 1-(4-Chloro-2-methylphenyl)-5-(2-fluoroethyl)-2-methyl-N-[4-(methylsulfonyl)phenyl]-1H-pyrrole-3-carboxamide]
26 | 4.8 | 110 | Cc1c(C(=O)Nc2ccc(S(C)(=O)=O)cc2)cc(C[C@H](C)O)n1-c1ccc(Cl)cc1OC(F)(F)F [Example 42, 1-[4-Chloro-2-(trifluoromethoxy)phenyl]-5-[(2S)-2-hydroxypropyl]-2-methyl-N-[4-(methylsulfonyl)phenyl]-1H-pyrrole-3-carboxamide]
27 | 9.1 | 111 | Cc1cc(NC(=O)c2cc(C[C@H](C)O)n(-c3ccc(F)cc3OC(F)F)c2C)ccc1S(C)(=O)=O [Example 22, 1-[2-(Difluoromethoxy)-4-fluorophenyl]-5-[(2S)-2-hydroxypropyl]-2-methyl-N-[3-methyl-4-(methylsulfonyl)phenyl]-1H-pyrrole-3-carboxamide]
28 | 8.3 | 96 | Cc1c(C(=O)Nc2ccc(S(N)(=O)=O)c(Cl)c2)cc(C[C@H](C)O)n1-c1ccc(F)cc1Cl [Example 49, N-[4-(Aminosulfonyl)-3-chlorophenyl]-1-(2-chloro-4-fluorophenyl)-5-[(2S)-2-hydroxypropyl]-2-methyl-1H-pyrrole-3-carboxamide]
29 | 7.1 | 85 | Cc1c(C(=O)Nc2ccc(S(C)(=O)=O)cc2)cc(C[C@H](C)O)n1-c1ccc(Cl)cc1Oc1ccc(F)cc1 [Example 45, 1-[4-Chloro-2-(4-fluorophenoxy)phenyl]-5-[(2S)-2-hydroxypropyl]-2-methyl-N-[4-(methylsulfonyl)phenyl]-1H-pyrrole-3-carboxamide]
30 | > 1000 |  | Cc1c(C(=O)Nc2ccc(S(C)(=O)=O)cc2)cc(C[C@H](C)O)n1-c1ccc(F)cc1Cl (single isomer, unassigned) [Example 40 - isomer B]
